Assay results published in the supplement of paper PMC10307832.

Key:
Assay in all cases: relative viability (nuclei count vs DMSO), 5 days (fraction); higher = more cells survive
[1] = compound: O[C@H]1CC[C@H](Nc2ncc3nc(Nc4c(F)cc(F)cc4F)n([C@H]4CCOC4)c3n2)CC1 [Tanzisertib] + O=C(CCCCCCC(=O)Nc1ccccc1)NO [Vorinostat] (partner 1 µM)
Method in brief: (§1)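 Each reported value is a median over duplicate plates. It expresses relative viability: treated-well nuclei count divided by vehicle-well nuclei count. Lung cancer cell lines in 1536-well plates were dosed by pin tool a day after seeding, alone with one drug or with a fixed anchor-drug dose plus five library-drug doses (not always all listed) in √10 steps, and nuclei were counted after 5 days.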

[2] = compound: C[C@@H](N)c1ccc(C(=O)Nc2ccnc3[nH]ccc23)cc1 + Nc1ncn([C@H]2C[C@H](O)[C@@H](CO)O2)c(=O)n1 [Decitabine] (partner 2 µM)
Method in brief: as §1

[3] = compound: C[C@@H](N)c1ccc(C(=O)Nc2ccnc3[nH]ccc23)cc1 + O=C(CCCCCCC(=O)Nc1ccccc1)NO [Vorinostat] (partner 1 µM)
Method in brief: as §1

[4] = compound: C[C@@H](N)c1ccc(C(=O)Nc2ccnc3[nH]ccc23)cc1 + C[C@@H](Oc1cc(-c2cnn(C3CCNCC3)c2)cnc1N)c1c(Cl)ccc(F)c1Cl [Crizotinib] (partner 1 µM)
Method in brief: as §1

Row | Cell Line | relative viability ([1]; first compound 0.08 µM) | relative viability ([1]; first compound 0.253 µM) | relative viability ([1]; first compound 0.8 µM) | relative viability ([1]; first compound 2.53 µM) | relative viability ([1]; first compound 8 µM) | relative viability ([2]; first compound 0.04 µM) | relative viability ([2]; first compound 0.1265 µM) | relative viability ([2]; first compound 0.4 µM) | relative viability ([2]; first compound 1.265 µM) | relative viability ([2]; first compound 4 µM) | relative viability ([3]; first compound 0.04 µM) | relative viability ([3]; first compound 0.1265 µM) | relative viability ([3]; first compound 0.4 µM) | relative viability ([3]; first compound 1.265 µM) | relative viability ([3]; first compound 4 µM) | relative viability ([4]; first compound 0.04 µM) | relative viability ([4]; first compound 0.1265 µM) | relative viability ([4]; first compound 0.4 µM) | relative viability ([4]; first compound 1.265 µM) | relative viability ([4]; first compound 4 µM)
1 | SK-LU-1 | 0.848 | 0.824 | 0.734 | 0.9 | 0.828 | 0.587 | 0.654 | 0.585 | 0.516 | 0.472 | 0.776 | 0.767 | 0.696 | 0.671 | 0.522 | 0.926 | 0.964 | 0.779 | 0.757 | 0.5
2 | LOU-NH91 | 0.948 | 0.924 | 1 | 0.974 | 0.418 | 0.755 | 0.79 | 0.78 | 0.69 | 0.577 | 0.754 | 0.791 | 0.885 | 0.625 | 0.725 | 0.691 | 0.727 | 0.691 | 0.668 | 0.635
3 | LXF-289 | 0.835 | 0.766 | 0.88 | 0.818 | 0.767 | 0.406 | 0.362 | 0.362 | 0.373 | 0.331 | 0.742 | 0.794 | 0.816 | 0.876 | 0.836 | 0.846 | 0.784 | 0.883 | 0.915 | 0.715
4 | NCI-H1299 |  |  |  |  |  |  |  |  |  |  |  |  |  |  |  | 0.905 | 0.911 | 0.845 | 0.845 | 0.713
5 | HARA | 0.558 | 0.556 |  | 0.385 | 0.585 | 0.54 | 0.672 | 0.52 | 0.611 | 0.401 | 0.521 | 0.646 | 0.604 | 0.403 | 0.26 | 1.18 | 1.13 | 1.21 | 0.835 | 0.735
6 | LU99A | 0.565 | 0.447 | 0.51 | 0.559 | 0.519 |  | 1.03 | 0.824 | 0.773 | 0.598 |  | 0.529 | 0.503 | 0.418 | 0.366 | 0.55 | 0.558 | 0.58 | 0.462 | 0.47
7 | 201T | 1.03 | 1.01 | 0.996 | 0.988 | 0.764 | 0.846 | 0.853 | 0.851 | 0.979 | 0.941 | 0.909 | 0.886 | 0.981 | 0.891 | 1.24 | 1.02 | 1.02 | 0.959 | 1.09 | 1.1
8 | HCC-827 | 0.747 | 0.871 | 0.725 | 0.853 | 0.357 |  | 0.33 | 0.379 | 0.227 | 0.331 |  | 0.813 | 1.04 | 0.972 | 0.701 | 0.928 | 0.957 | 0.925 | 0.941 | 0.795
9 | NCI-H1666 | 1.03 | 0.988 | 1.11 | 1.01 | 1.05 | 0.83 | 0.768 | 0.865 | 0.781 | 0.855 | 1.1 | 1.05 | 1.22 | 1.5 | 1.31 | 1.12 | 0.967 | 1.22 | 1.16 | 1.33
10 | NCI-H1915 | 0.569 | 0.535 | 0.46 | 0.503 | 0.487 |  | 0.265 | 0.242 |  | 0.235 |  | 0.546 | 0.547 |  | 0.462 | 0.911 | 0.886 | 0.929 |  | 0.81
11 | NCI-H2009 | 0.728 | 0.743 | 0.773 | 0.753 | 0.729 | 0.318 | 0.391 | 0.355 | 0.346 | 0.351 | 0.617 | 0.703 | 0.683 | 0.703 | 0.632 | 1.05 | 0.954 | 0.825 | 0.808 | 0.644
12 | ChaGo-K-1 | 0.81 | 0.801 | 0.71 | 0.779 | 0.57 | 0.569 | 0.526 | 0.548 | 0.529 | 0.456 | 0.702 | 0.751 | 0.743 | 0.555 | 0.676 | 1.07 | 1.17 | 1.1 |  | 0.846
13 | COR-L 105 | 0.834 | 0.893 | 0.828 | 0.903 | 1 | 0.651 | 0.674 | 0.627 | 0.495 | 0.526 | 1.04 | 0.793 | 0.998 | 0.76 | 0.544 | 0.721 | 0.747 | 0.652 | 0.537 | 0.408
14 | NCI-H2170 | 0.806 | 0.864 | 0.874 | 0.82 | 0.705 | 0.497 | 0.467 | 0.489 | 0.517 | 0.429 | 0.854 | 0.886 | 0.902 | 0.771 | 0.846 | 1.21 | 1.08 | 1.18 | 1.21 | 1.08
15 | A549 |  |  |  |  |  | 0.343 | 0.254 | 0.374 | 0.316 | 0.286 |  |  |  |  |  | 0.833 | 0.793 | 0.734 | 0.504 | 0.268
16 | SW 1573 | 1.21 | 0.666 | 0.72 | 1.04 | 0.566 | 0.569 | 0.577 | 0.567 | 0.497 | 0.301 | 0.652 | 0.669 | 0.638 | 0.428 | 0.592 | 0.792 | 0.816 | 0.777 | 0.65 | 0.765
17 | NCI-H1975 | 0.743 | 0.761 | 0.71 | 0.704 | 0.656 | 0.365 | 0.381 | 0.426 | 0.356 | 0.28 | 0.734 | 0.649 | 0.667 | 0.609 | 0.584 | 1.02 | 0.961 | 0.944 | 0.873 | 0.727
18 | Calu-6 |  |  |  |  |  |  |  |  |  |  |  |  |  |  |  | 0.761 | 0.76 | 0.741 | 0.682 | 0.489
19 | NCI-H1648 | 0.553 | 0.36 | 0.398 | 0.571 | 0.391 | 0.746 | 0.545 | 0.762 | 0.754 | 0.815 | 0.623 | 0.81 | 0.754 | 0.952 | 0.899 |  |  |  |  | 
